Data: patent US9895344B2, “Treating various disorders with 7,8-dihydroxyflavone and derivatives thereof” (EMORY UNIVERSITY, priority 2008, dated 2018)

How the values were obtained:
TrkB [1] = target: T1, TrkB (Mus musculus, UniProt P15209); assay: Time course of TrkB activation in mouse brain; assay type: in vivo, C57BL/6J mice; conditions: 1 mg/kg, oral injection, FIG. 28
T1 construct: from tissue; host or cells: mouse brain
Procedure: To compare the stimulatory effect on TrkB receptor in mouse brain, 1 mg/kg of these compounds was injected into C57BL/6J mice and monitored TrkB activation at different time points (see FIG. 28). […] In contrast, 7,8-DHF triggered TrkB activation 2 h after oral injection and peaked at 4 h and TrkB activity progressively faded away. The TrkB activity was demonstrable even at 16 h (FIG. 28).

GST-TrkB ECD = GST-TrkB ECD (Rattus norvegicus, UniProt Q63604); assay: In vitro binding assay with immobilized GST-TrkB ECD on glutathione beads, UV-spectrometry of eluate; conditions: 500 nM, 4° C., 30 minutes, FIG. 17
Procedure: To further explore the association of 7,8-dihydroxyflavone and the TrkB receptor, an in vitro binding assay was performed. Increasing volumes of GST-TrkB ECD and GST-TrkB ICD were bound to glutathione beads to a total of 250 uL, and 500 nM 7,8-dihydroxyflavone in 250 μl (20% DMSO/80% PBS) was incubated with the beads in the column at 4° C. for 30 minutes. After the incubation, the elute fractions were collected and the concentration of eluted 7,8-dihydroxyflavone was analyzed by UV-spectrometry at a wavelength of 410 nm.

immobility = assay: Forced swim test after 21 days oral treatment; assay type: in vivo, C57BL/6J mice; conditions: 5 mg/kg, oral injection, FIG. 34
Procedure: Adult male mice (2-3 months old) were randomly submitted to a forced swim test without a pre-swim. Saline, 4′-DMA-7,8-DHF and 7,8-DHF (5 mg/kg) were orally injected for 21 days. The mice were allowed to adapt to the test room for 2 days. The mice were placed in a clear glass cylinder with a diameter of 16 cm, half-filled with clear water at 24° C.
(§1) To explore whether 4′-DMA-7,8-DHF and 7,8-DHF have any antidepressant effect, a forced swim test (6 minutes, immobility recorded in the last 4 minutes) was conducted after chronic treatment of male C57BL/6J mice (8 mice/group) for 21 days via oral injection.

TrkB [2] = target: T1, TrkB; assay: Trk activation in cortical neurons from wild-type and TrkB-null pups: TrkB; assay type: cell-based, mice; conditions: wild-type but not TrkB-null neurons, FIG. 21
Procedure: To determine whether 7,8-dihydroxyflavone can selectively activate TrkB receptor and prevent neuronal cell death, cortical neurons were prepared from homozygous pups of TrkB+/−mice, which were mated to the same genotype. […] Glutamate nonselectively elicited weak TrkA phosphorylation in both wild-type and TrkB-null neurons (FIG. 21, row 3).

caspase-3 activation = assay: Active caspase-3 ELISA in glutamate-treated cortical neurons; assay type: cell-based, rat; conditions: 50 nM or higher concentrations, 50 μM glutamate for 16 hours, FIG. 29
Procedure: To quantitatively compare the anti-apoptotic activity of 7,8-DHF and 4′-DMA-7,8-DHF, cortical neurons were prepared from E16 rat embryonic cells and pretreated with various indicated concentrations of 4′-DMA-7,8-DHF and 7,8-DHF for 30 min, followed by 50 μM glutamate for 16 hours. The cell lysates were quantitatively analyzed with an active caspse-3 ELISA.

TrkA [3] = target: T2, TrkA (Mus musculus, UniProt Q3UFB7); assay: Immunoblotting of brain lysates from forced swim test mice: TrkA; assay type: in vivo; parameters: from tissue; host or cells: mouse brain; conditions: 5 mg/kg, 21 days oral, anti-p-TrkA 794, FIG. 35
Procedure: as §1

[4] = system: KA-induced apoptosis in hippocampus; assay: Kainic acid-induced apoptosis in mouse hippocampus (TUNEL); assay type: in vivo, C57BL/6 mice; conditions: 5 mg/kg intraperitoneally followed by 20 mg/kg KA, 5 days, FIG. 19
Excerpt: Kainic acid (KA) is a potent agonist for the AMPA receptor. Peripheral injections of KA result in recurrent seizures and the subsequent degeneration of select populations of neurons in the hippocampus (Schauwecker and Steward, Proc. Natl. Acad. Sci. USA, 94:4103-8, 1997). KA induces neuronal cell death in a caspase-dependent and independent manners (Faherty et al., Brain Res. Mol. Brain. Res., 70:159-63, 1999; Glassford et al., Neurol. Res., 24:796-800, 2002; Liu et al., Mol. Cell, 29:665-78, 2008). To explore whether 7,8-dihydroxyflavone can block the neurotoxicity initiated by KA, C57BL/6 mice aged 60 days were intraperitoneally injected with either a single dose of 20% DMSO in saline, 20 mg/kg KA (Sigma), or 5 mg/kg of 7,8-dihydroxyflavone followed by 20 mg/kg of KA. In 5 days, the mice were anesthetized, perfused with 4% paraformaldehyde in 0.1M phosphate buffered saline, and the brains were removed, post-fixed overnight, and processed for paraffin embedding. Serial sections of the brain were cut to a thickness of 5 μm and mounted on slides (Superfrost-plus, Fisher; Pittsburgh, Pa.).

TrkB [5] = target: T1, TrkB; assay: TrkB activation in mouse brain after intraperitoneal injection; assay type: in vivo, mice; conditions: 5 mg/kg intraperitoneally
Procedure: (§2) To assess whether 7,8-dihydroxyflavone can provoke TrkB activation in the brain, mice were intraperitoneally injected with a dose of 5 mg/kg and analyzed at various time points. […] Further, as shown in FIG. 12 (right panel), the protein and mRNA levels of the neurotrophic receptors were not altered after treatment with 7,8-dihydroxyflavone.

TrkB [6] = target: TrkB (Rattus norvegicus, UniProt Q63604); assay: Western analysis of TrkB activation in hippocampal neurons; assay type: cell-based; parameters: endogenous in cells; host or cells: primary hippocampal neurons; conditions: FIG. 9
Procedure: (§3) To further examine whether 7,8-dihydroxyflavone can stimulate TrkB-mediated downstream signaling cascades, Western analysis was performed.
To further test that the stimulatory effect of 7,8-dihydroxyflavone is mediated through TrkB, cells were either untreated or treated with K252a, a selective inhibitor of the tyrosine kinase activity of the Trk family of neutrophin receptors.

TrkA [7] = target: T2, TrkA; assay: TrkA phosphorylation in mouse brain after intraperitoneal injection; assay type: in vivo, mice; parameters: from tissue; host or cells: mouse brain; conditions: 5 mg/kg intraperitoneally, 2 hours after injection, FIG. 12
Procedure: as §2

Erk = assay: Western analysis of Erk phosphorylation in hippocampal neurons; assay type: cell-based
Procedure: as §3
To probe the time course of 7,8-dihydroxyflavone triggered TrkB activation, hippocampal neurons were treated with 7,8-dihydroxyflavone at 500 nM and phosphorylation of Erk and Akt was determined over time by Western analysis. […] Stimulation of Erk and Akt by 7,8-dihydroxyflavone also occurred in a dose dependent manner.

T1 sequence (P15209 32-821): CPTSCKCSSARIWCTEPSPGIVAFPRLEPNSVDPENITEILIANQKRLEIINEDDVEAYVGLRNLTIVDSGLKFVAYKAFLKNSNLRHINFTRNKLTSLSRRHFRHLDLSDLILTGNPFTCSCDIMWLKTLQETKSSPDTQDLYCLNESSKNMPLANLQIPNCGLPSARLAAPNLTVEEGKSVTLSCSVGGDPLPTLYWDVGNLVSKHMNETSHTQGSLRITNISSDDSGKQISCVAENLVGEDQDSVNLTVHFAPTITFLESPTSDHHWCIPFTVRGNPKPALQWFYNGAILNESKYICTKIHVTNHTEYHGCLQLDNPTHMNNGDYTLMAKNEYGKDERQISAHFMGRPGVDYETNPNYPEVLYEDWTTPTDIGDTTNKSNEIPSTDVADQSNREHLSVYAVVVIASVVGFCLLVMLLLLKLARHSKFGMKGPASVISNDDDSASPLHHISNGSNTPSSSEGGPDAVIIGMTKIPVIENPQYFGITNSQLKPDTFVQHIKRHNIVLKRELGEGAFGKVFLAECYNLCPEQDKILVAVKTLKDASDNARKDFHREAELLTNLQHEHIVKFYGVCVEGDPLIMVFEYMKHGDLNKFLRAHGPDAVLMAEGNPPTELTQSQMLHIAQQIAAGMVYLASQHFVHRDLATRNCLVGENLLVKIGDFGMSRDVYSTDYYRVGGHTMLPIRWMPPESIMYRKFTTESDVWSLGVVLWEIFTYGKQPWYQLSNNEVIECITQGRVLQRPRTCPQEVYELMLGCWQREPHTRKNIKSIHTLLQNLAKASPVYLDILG
T2 sequence (Q3UFB7 34-799): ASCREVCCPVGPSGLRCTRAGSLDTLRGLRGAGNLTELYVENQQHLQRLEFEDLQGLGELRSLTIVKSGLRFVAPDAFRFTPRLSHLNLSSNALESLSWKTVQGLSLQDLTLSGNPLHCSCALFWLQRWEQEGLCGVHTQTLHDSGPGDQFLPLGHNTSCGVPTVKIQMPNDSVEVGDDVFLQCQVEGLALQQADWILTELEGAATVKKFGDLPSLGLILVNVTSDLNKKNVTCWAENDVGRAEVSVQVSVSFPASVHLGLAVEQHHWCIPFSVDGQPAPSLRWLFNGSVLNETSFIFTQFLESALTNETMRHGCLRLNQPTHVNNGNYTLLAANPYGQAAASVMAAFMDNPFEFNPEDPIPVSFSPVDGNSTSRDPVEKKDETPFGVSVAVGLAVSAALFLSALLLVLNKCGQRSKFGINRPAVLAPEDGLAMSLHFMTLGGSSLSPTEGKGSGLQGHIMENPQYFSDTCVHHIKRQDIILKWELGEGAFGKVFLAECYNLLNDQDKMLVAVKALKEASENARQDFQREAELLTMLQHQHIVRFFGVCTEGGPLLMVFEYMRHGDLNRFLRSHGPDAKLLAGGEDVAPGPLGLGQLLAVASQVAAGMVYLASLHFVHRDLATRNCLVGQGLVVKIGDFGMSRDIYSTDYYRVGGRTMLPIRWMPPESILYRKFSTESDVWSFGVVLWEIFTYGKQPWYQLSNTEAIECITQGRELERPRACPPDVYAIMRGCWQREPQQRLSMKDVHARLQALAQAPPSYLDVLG
GST-TrkB ECD, sequence (Q63604 32-429 limits assumed): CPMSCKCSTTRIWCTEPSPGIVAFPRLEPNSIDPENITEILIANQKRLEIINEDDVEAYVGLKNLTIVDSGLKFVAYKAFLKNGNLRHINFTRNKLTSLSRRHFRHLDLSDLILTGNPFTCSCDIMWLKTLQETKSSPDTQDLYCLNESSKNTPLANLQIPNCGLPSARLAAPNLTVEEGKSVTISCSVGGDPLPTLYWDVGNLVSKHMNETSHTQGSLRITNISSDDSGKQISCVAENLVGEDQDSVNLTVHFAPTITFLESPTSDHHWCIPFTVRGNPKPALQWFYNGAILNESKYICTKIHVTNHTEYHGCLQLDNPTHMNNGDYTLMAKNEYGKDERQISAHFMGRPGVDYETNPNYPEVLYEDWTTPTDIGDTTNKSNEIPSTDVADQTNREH
TrkB (Rattus norvegicus, UniProt Q63604), sequence (Q63604 32-821): as the sequence (P15209 32-821) above, with T3M, S9T, A10T, V32I, R63K, S84G, M153T, L185I, S394T, S770N counted along it

O=c1cc(-c2ccccc2)oc2c(O)c(O)ccc12 [7,8-dihydroxyflavone]
TrkB activity at 16 h (TrkB [1]): demonstrable
time at which TrkB activation was elicited (TrkB [1]): 2 h
time at which TrkB activity peaked (TrkB [1]): 4 h
concentration of eluted compound as GST-TrkB ECD volumes increased (GST-TrkB ECD): decreased
swimming immobility (immobility): significantly decreased
TrkB activation in wild-type neurons (TrkB [2]): specifically activates TrkB
Glutamate-provoked caspase-3 activation (caspase-3 activation): substantially blocked
TrkA activation in mouse brain (TrkA [3]): not TrkA activation
KA-induced apoptosis in hippocampus [4]: decreased KA-induced apoptosis
TrkB phosphorylation in the brain (TrkB [5]; 2 hours after injection, FIG. 12): selectively phosphorylated
protein and mRNA levels of the neurotrophic receptors (TrkB [5]; FIG. 12 right): not altered
TrkB phosphorylation in the hippocampus (immunofluorescent staining) (TrkB [5]; FIG. 13): substantial TrkB phosphorylation
activation of TrkB (Western) (TrkB [6]): demonstrated activation of TrkB
TrkA phosphorylation in the brain (TrkA [7]): not TrkA
time at which Erk phosphorylation was observed (Erk; 500 nM): 5 min
time by which Erk phosphorylation faded (Erk; 500 nM): 180 min
Erk activation (Western) (Erk; FIG. 9): activated
concentration at which Erk phosphorylation was observed (Erk; treatment for 30 minutes): 250 nM
